Read-outs that look alike come from different tables or passages of the source.
How the values were obtained:
[1] = target: T1, horse serum BuChE (eqBuChE) (Equus caballus, UniProt P81908); settings: cited from earlier work
T1 construct: BuChE from horse serum (lyophilized powder, Sigma-Aldrich); purchased Sigma-Aldrich; host or cells: horse serum

[2] = target: T2, Electrophorus electricus AChE (EeAChE) (Electrophorus electricus, UniProt O42275); settings: cited from earlier work
T2 construct: purified AChE from Electrophorus electricus (Type V-S, Sigma-Aldrich); purchased Sigma-Aldrich Type V-S
T2 sequence (O42275 24-633): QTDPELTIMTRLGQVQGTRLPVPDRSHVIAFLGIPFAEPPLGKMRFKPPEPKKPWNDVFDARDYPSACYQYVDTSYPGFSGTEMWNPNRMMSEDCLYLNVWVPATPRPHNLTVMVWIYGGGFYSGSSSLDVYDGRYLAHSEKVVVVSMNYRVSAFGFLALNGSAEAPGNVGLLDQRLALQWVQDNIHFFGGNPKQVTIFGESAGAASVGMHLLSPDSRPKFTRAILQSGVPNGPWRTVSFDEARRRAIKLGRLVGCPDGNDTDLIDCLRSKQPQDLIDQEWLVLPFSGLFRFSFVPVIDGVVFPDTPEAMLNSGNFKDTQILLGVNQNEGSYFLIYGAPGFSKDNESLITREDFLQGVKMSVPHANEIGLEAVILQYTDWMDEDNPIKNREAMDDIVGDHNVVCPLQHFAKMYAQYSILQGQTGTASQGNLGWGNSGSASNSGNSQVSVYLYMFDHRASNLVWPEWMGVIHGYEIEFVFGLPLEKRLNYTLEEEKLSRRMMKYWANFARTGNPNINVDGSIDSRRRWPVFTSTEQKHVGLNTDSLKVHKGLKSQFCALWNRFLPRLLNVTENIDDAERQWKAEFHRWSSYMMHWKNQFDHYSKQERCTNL

in vitro [3] = settings: PAMPA, pH 7.4
Method: Penetration across the BBB is an essential property for compounds targeting the CNS. […] The filter membrane of the donor plate was coated with PBL (Polar Brain Lipid, Avanti, AL, USA) in dodecane (4 µL of 20 mg/mL PBL in dodecane) and the acceptor well was filled with 300 µL of PBS pH 7.4 buffer ([…]). Tested compounds were dissolved first in DMSO and that diluted with PBS pH 7.4 to reach the final concentration 100 µM in the donor well. […] 300 µL of the donor solution was added to the donor wells ([…]) and the donor filter plate was carefully put on the acceptor plate so that coated membrane was “in touch” with both donor solution and acceptor buffer. Test compound diffused from the donor well through the lipid membrane (Area = 0.28 cm^2) to the acceptor well. The concentration of the drug in both donor and the acceptor wells was assessed after 3, 4, 5 and 6 h of incubation in quadruplicate using the UV plate reader Synergy HT (Biotek, Winooski, VT, USA) at the maximum absorption wavelength of each compound.

[4] = ORAC-FL; cited from earlier work
in vitro [5] = type: cell-based; settings: 24 h, MTT, read-out: In vitro toxicity (% cell viability)
Method: (§1) A prerequisite for any effective lead drug is to keep its cytotoxicity at the lowest possible level. In this regard, we submitted the four most promising compounds (3Ab, 3Bb, 3Cb and 3Ba) to an in vitro toxicologic evaluation (MTT assay) using human hepatocellular carcinoma cell line (HepG2) which represents a good probe to evaluate hepatotoxic effects. […].
(§2) HepG2 cells were purchased from American Type Culture Collection. The cells were cultured in Eagle’s Minimum Essential Medium (Ozyme, France) supplemented with 10% fetal bovine serum, 1X non-essential amino acids, 100 units/mL penicillin and […] streptomycin (Dutscher, Brumath, France). Cultures were kept under a CO2/air (5%/95%) humidified atmosphere at 37 °C. Prior to the experiment, cells were seeded in 96-well culture plates at a density of 0.1 × 10^6 cells per well. After 24 h of incubation, the culture medium was refreshed and 100 µL of the test compounds or DMSO (0.1%) were added. […] For the MTT assay, after 24 h of treatment, cells were incubated with 50 µL MTT (0.5 mg/mL, Sigma Aldrich, city, France) at 37 °C for 2 h. Plates were centrifuged, MTT was removed and 100 µL DMSO was distributed per well. The absorbance at 570 nm was measured using microplate reader (brand). Cell viability was expressed as percentage of cell viability compared to controls (DMSO, 0.1%).

HepG2 cells = experiment: in vitro; type: cell-based; settings: HepG2, MTT, concentrations up to 1000 μM
Method: as §1, §2

[6] = related alkaloid and synthetic compounds

T1 sequence (P81908 whole entry): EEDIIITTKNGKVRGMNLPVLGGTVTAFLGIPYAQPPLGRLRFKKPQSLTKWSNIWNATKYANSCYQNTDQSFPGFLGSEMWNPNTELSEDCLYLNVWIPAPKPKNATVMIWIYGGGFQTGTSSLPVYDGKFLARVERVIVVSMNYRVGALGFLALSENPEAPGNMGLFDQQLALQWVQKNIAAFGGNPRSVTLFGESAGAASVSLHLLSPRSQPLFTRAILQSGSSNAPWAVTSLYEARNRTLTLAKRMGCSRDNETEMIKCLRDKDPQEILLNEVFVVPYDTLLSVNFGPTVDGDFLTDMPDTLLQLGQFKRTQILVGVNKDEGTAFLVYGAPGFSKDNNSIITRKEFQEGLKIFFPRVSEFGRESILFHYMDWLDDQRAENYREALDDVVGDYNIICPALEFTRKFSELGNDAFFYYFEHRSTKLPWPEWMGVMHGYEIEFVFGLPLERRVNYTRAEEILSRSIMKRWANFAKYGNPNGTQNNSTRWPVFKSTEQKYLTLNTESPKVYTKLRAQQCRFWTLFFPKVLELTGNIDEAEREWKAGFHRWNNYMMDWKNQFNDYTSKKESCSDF

## C[n+]1c2n(c(=O)c3ccccc31)CCc1c-2[nH]c2ccccc12 [II, dehydroevodiamine chloride]
[1]
  IC50: 8.4 µM
[2]
  IC50: 6.3 µM

## O=c1c2ccccc2nc2n1CCCC2 [Ib]
[1]; unit inferred
  IC50: > 500 µM
[2]; [6]
  IC50: 38.6 µM

## O=c1c2ccccc2nc2n1CCCCC2 [Ic]
[1]; unit inferred
  IC50: > 500 µM
[2]; [6]
  IC50: 279 µM

## Nc1c2c(nc3ccccc13)CCCC2 [Tacrine, tacrine, reference compound]
In vitro [3]
  Papp: 5.3 ± 0.19 ×10⁻⁶ cm/s
[4]
  ORAC: 0.2 ± 0.1 [22] Trolox equivalents
In vitro [5]; HepG2, 1 µM
  viability at 24 h, 1 µM: 105 ± 4.6%
In vitro [5]; HepG2, 3 µM
  viability at 24 h, 3 µM: 104 ± 8.7%
In vitro [5]; HepG2, 10 µM
  viability at 24 h, 10 µM: 97 ± 6.5%
In vitro [5]; HepG2, 30 µM
  viability at 24 h, 30 µM: 93 ± 2.7%
In vitro [5]; HepG2, 100 µM
  viability at 24 h, 100 µM: 95.2 ± 6%
In vitro [5]; HepG2, 300 µM
  viability at 24 h, 300 µM: 47.6 ± 5.6%
In vitro [5]; HepG2, 1 mM
  viability at 24 h, 1 mM: 13.9 ± 0.8%
HepG2 cells
  hepatotoxicity on HepG2 cells (in words): safe up to 100 µM but significantly decreased cell viability above 300 μM

Source: PMC6273488, “Synthesis and Biological Evaluation of Benzochromenopyrimidinones as Cholinesterase Inhibitors and Potent Antioxidant, Non-Hepatotoxic Agents for Alzheimer’s Disease” (Molecules, 2016)
